A short description of the series: gradient 5% acetonitrile 3 min, to 50% in 2 min, to 85% in 15 min, held 3 min, 100 µL/min. The following applies: column: Zorbax Extend-C18 2.1 x 50 mm; eluents: water / acetonitrile, 0.1% formic acid. The essentials: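 Data were gathered over 3 months by HPLC coupled to a quadrupole time-of-flight mass spectrometer, operated in positive and negative ionization mode. Mixtures of ~100 pure standards ran on a Zorbax Extend-C18 column (2.1 × 50 mm, 1.8 μm) at 100 μL/min, with water and acetonitrile each containing 0.1% formic acid and dead and dwell volumes of 40 μL and 900 μL. Retention time was read from adduct peaks picked by computer and checked manually.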
Consider `O=C(Nc1ccc(F)c(Cl)c1)C1CCCN(c2ncnc3c2nc2n3CCCCC2)C1` (centres undefined), for which the RP-LC retention time came to 917 s.
The figure for `Cc1cccc(NC(=O)N2CCC(c3nc(C(=O)N(C)C)c(C)o3)CC2)c1C` is 697 s; for `CCOC(=O)c1nc(Nc2cc(F)ccc2F)c2ccccc2n1` it is 912 s; for `O=S(=O)(c1ccc(Cl)cc1)N1CCc2nc(-c3ccccc3)ncc2C1` it is 1080 s.
The figure for `Cc1oc(-c2ccc(C(=O)N3CCCCC3)cc2)nc1CS(=O)(=O)c1ccccc1` is 843 s; for `COC(=O)C1=C(C)N(C2CCCC2)C(=O)C1(NC(=O)c1cccc(OC)c1)C(F)(F)F` (centres undefined) it is 1010 s; for `CCN1C(=O)C2CCCN2C(=O)c2ccccc21` (centres undefined) it is 639 s.
The figure for `CCOC(=O)C1CCN(Cc2nnn(-c3ccccc3)c2C)CC1` is 614 s.
For `O=C(Cn1cccc1-c1nc(-c2ccccc2)no1)Nc1ccc2c(c1)CCC2`, the RP-LC retention time came to 1100 s.
As to `O=C(COc1ccccc1F)NCC1CCN(Cc2cccs2)CC1`, the RP-LC retention time came out at 560 s.
The figure for `CCn1c(=O)sc2cc(S(=O)(=O)N3CCC(C(=O)Nc4ccc(F)cc4)CC3)ccc21` is 917 s; for `CN(C)c1ccc(CNC(=O)c2nnc(-c3ccc(S(=O)(=O)N4CCCC4)cc3)o2)cc1` it is 688 s.
`CCCn1c(C2CCN(C(=O)Nc3ccc(F)cc3)CC2)cc(=O)n2nccc12` registered an RP-LC retention time of 648 s.
The figure for `CCC(=O)N1CCc2cc(N3CC(C(=O)Nc4ccc(OC)cc4)CC3=O)ccc21` (centres undefined) is 714 s; for `Cc1nn(C)c2nc(OC(C)C(=O)NCCc3ccc(Cl)cc3)cc(C(F)(F)F)c12` (centres undefined) it is 1080 s; for `C[C@H]1CC[C@@H]2[C@@H](C)[C@H]3[C@H](C[C@H]4[C@@H]5CC[C@H]6C[C@@H](O)CC[C@]6(C)[C@H]5CC[C@]34C)N2C1` it is 763 s.
The figure for `Cc1ccc(CC(=O)N2CCN(c3cc(-c4cccs4)[nH]n3)CC2)cc1` is 758 s; for `Cc1cccc(Cn2nc3c(S(=O)(=O)N4CCOCC4)cccn3c2=O)c1` it is 777 s; for `O=S(=O)(Nc1ccc(F)cc1)c1cccnc1Nc1ccc(F)cc1` it is 1060 s.
For `O=c1[nH]cc(S(=O)(=O)N2CCCCC2)c(=O)[nH]1`, the RP-LC retention time amounted to 604 s.
`COc1ccc(-c2nc(-c3ccc4c(c3)nc(C)c(=O)n4C)no2)cc1OC` yielded an RP-LC retention time of 876 s.
`COc1ccc(-c2c(C)noc2NC(C)=O)cc1S(=O)(=O)N1CCN(c2ncccn2)CC1` came in with an RP-LC retention time of 700 s.
Take `Cc1ccc2oc(N3CCN(C(=O)c4cccc(-c5noc(C)n5)c4)CC3)nc2n1`: the RP-LC retention time was found to be 623 s.
Take `Cc1ccn2c(NC(=O)c3cccc([N+](=O)[O-])c3)c(-c3ccc(F)cc3)nc2c1`: the RP-LC retention time was 863 s.
The compound `Cc1nc2cccnc2n1-c1ccc(C(=O)NCCCN2CCCC2=O)cc1` yielded an RP-LC retention time of 580 s.
With `CN1CCCc2cc(C(=O)NCc3ccccc3F)sc21`, the RP-LC retention time stood at 915 s.
The figure for `CCCS(=O)(=O)N1CC(F)(F)C[C@H]1c1nc(-c2cccnc2)no1` is 802 s; for `O=C(Cn1nc(N2CCOCC2)c2ccccc2c1=O)Nc1ccc(C(F)(F)F)cc1` it is 898 s.
The figure for `O=C(CSc1ccc(F)cc1)NCC1(c2ccc(F)cc2)CC1` is 909 s; for `COc1ccc(-c2nsc(SCC(=O)Nc3ccc4c(c3)OCCO4)n2)cc1` it is 906 s; for `CCOc1ccc2ccccc2c1C(=O)NCCc1ccsc1` it is 872 s.
As to `Cc1noc([C@@H]2CN(Cc3ccc(F)cc3F)C[C@H]2CO)n1`, the RP-LC retention time came out at 580 s.
The figure for `COc1ccc(OCc2nc(-c3ccc4nnn(C)c4c3)no2)cc1` is 916 s; for `CCc1nc2c(c(=O)n1CC(=O)NCc1ccc(C)c(C)c1)CN(Cc1ccccc1)CC2` it is 694 s; for `O=C(NC1(c2nc(-c3cccnc3)no2)CCCCC1)c1ccc[nH]c1=O` it is 667 s.
Take `CN(C)c1ccc(N2C=C(C(=O)N3CCCC3)S(=O)(=O)c3ccccc32)cc1`: the RP-LC retention time stood at 811 s.
`COc1ccc(CNC(=O)Cn2nc3c4ccccc4ncn3c2=O)cc1` returned an RP-LC retention time of 651 s.
As to `Cc1nn2c(NC(=O)CSc3nnc4sc5ccccc5n34)csc2nc1=O`, the RP-LC retention time worked out at 635 s.
As to `CCOc1cccc(-c2noc(Cc3nnc(-c4cccc(Br)c4)o3)n2)c1`, the RP-LC retention time was determined as 1160 s.
`O=C(NC1CCCCCCC1)C1CCCN(S(=O)(=O)c2c[nH]c(C(=O)N3CCCCCC3)c2)C1` (centres undefined): the RP-LC retention time stood at 980 s.
With `CCn1c(SCC(=O)N2CCCC2)nnc1-c1ccc2c(c1)OCCCO2`, the RP-LC retention time was determined as 666 s.
The figure for `CN(C(=O)C1CCCN(c2ncnc3c2nc2n3CCCCC2)C1)c1ccccc1F` (centres undefined) is 785 s; for `CCOC(=O)c1ccc(N2C=C(C#N)S(=O)(=O)c3cc(F)ccc32)cc1` it is 907 s; for `CCN1CCCn2cc(S(=O)(=O)Nc3ccc(C)c(F)c3)cc2C1=O` it is 754 s.
The figure for `O=C(Nc1ccccc1SCc1nnc(-c2ccccc2)o1)c1ccc(Br)o1` is 1040 s.
In the case of `O=C(Cn1cnc2c(sc3nc(-c4ccccc4)ccc32)c1=O)NCCc1ccc(Cl)cc1`, the RP-LC retention time turned out to be 1060 s.
Consider `O=[N+]([O-])c1cccc(-c2nnc(-c3ccccc3)o2)c1`, for which the RP-LC retention time amounted to 887 s.
`CCc1ccccc1S(=O)(=O)N1CCN(c2nc3ccncc3n(C(C)C)c2=O)CC1` came in with an RP-LC retention time of 632 s.
As to `COc1ccccc1NC(=O)N1CCC(CNC(=O)CCSc2ccccc2)CC1`, the RP-LC retention time worked out at 771 s.
The figure for `Cc1noc(C)c1S(=O)(=O)N1CCC2(CC1)CN(c1ccccc1)C2=O` is 924 s; for `CC(=O)Nc1cccc2c(C(=O)N3CCN(c4cccc(Cl)c4)CC3)ccnc12` it is 920 s.
Take `O=C(c1cc(-c2ccco2)[nH]n1)N1CCN(c2ccccn2)CC1`: the RP-LC retention time came to 583 s.
Take `CC(C)c1nc(C2CN(C(=O)Nc3ccc(Cl)cc3)C2)n(C)n1`: the RP-LC retention time was 704 s.
`CCN1CCN(CCNC(=O)C2CCN(C(=O)c3ccc(-n4ccc5ccccc54)s3)CC2)CC1` displayed an RP-LC retention time of 597 s.
The figure for `CC(Oc1cccc(Cl)c1)C(=O)N1CCn2cnnc2C1` (centres undefined) is 622 s; for `COCCn1ccc2nc(C)c(C(=O)NCCCc3ccco3)cc2c1=O` it is 665 s; for `O=C(Cn1c(-c2cccs2)cc2cc(Cl)ccc21)NCCN1CCOCC1` it is 706 s.
`Cc1ccccc1Cn1cnc2c(cnn2CCNC(=O)Cn2cnc3ccccc32)c1=O` displayed an RP-LC retention time of 578 s.
The figure for `C=CCn1c(=O)c2ccccc2n(Cc2nc(-c3ccc(OCC)c(OC)c3)no2)c1=O` is 682 s.
As for `CC(C(=O)NCc1ccco1)C1CCOCC1` (centres undefined), the RP-LC retention time worked out at 644 s.
Regarding `CCOc1ccccc1-c1noc(Cn2c(=O)n(Cc3cccc(OC)c3)c(=O)c3sccc32)n1`, the RP-LC retention time was determined as 1110 s.
The compound `O=C(NCc1nn(Cc2ccccc2)c2ccccc12)c1ccco1` came in with an RP-LC retention time of 853 s.
`CCCn1cc(C2=CCN(C(=O)NCC3CCCO3)CC2)c2cccnc21` (centres undefined) registered an RP-LC retention time of 719 s.
The figure for `Cc1ccccc1C(=O)Nc1ccccc1NC(=O)C1CCC1` is 795 s; for `CCN1C(=O)COc2ccc(-c3noc(CNC(=O)Cc4ccc(Cl)cc4)n3)cc21` it is 859 s; for `CCCOc1nc2ccccc2nc1N1CCCC(C(=O)Nc2cc(C)cc(C)c2)C1` (centres undefined) it is 1390 s.
The figure for `O=C(NCCc1ccco1)c1ccc2cnn(Cc3ccc(F)cc3)c2c1` is 873 s; for `COc1ccccc1N1CCN(CC(O)COc2cccc3ccccc23)CC1` (centres undefined) it is 838 s; for `Cc1csc(-c2csc(S(=O)(=O)NCc3cccs3)c2)n1` it is 907 s.
With `CCN1C(=O)COc2ccc(-c3noc(CNC(=O)c4ccccc4)n3)cc21`, the RP-LC retention time was 802 s.
With `COc1ccc(S(=O)(=O)N2CCc3nc(CNC(=O)C4CCC4)n(C)c3C2)cc1`, the RP-LC retention time is 628 s.
In turn, `CCOC(=O)c1c(-c2cccnc2)n(C)c2cc(-c3cccnc3)c(OC)cc12` gave an RP-LC retention time of 634 s.
`CCC(=O)N(Cc1ccc(F)cc1)C(C)C(=O)c1c(C)c(C(=O)OC)n(C)c1C` (centres undefined) had an RP-LC retention time of 922 s.
The figure for `C/C(O)=C(\C#N)C(=O)Nc1ccc(C(F)(F)F)cc1` is 858 s; for `Cc1ccc2c(Nc3ccc(C)c(F)c3)c(C(=O)N3CCSCC3)cnc2n1` it is 642 s; for `COc1ccc(NC(=O)N2CCCC(Cn3cnc4cccnc43)C2)c(OC)c1` (centres undefined) it is 651 s.
The figure for `CCn1ccc(C(=O)NC2CCN(c3nnc4ccc(Cl)cn34)CC2)n1` is 581 s.
The figure for `CCC(=O)Oc1cccc(N2C(=O)c3cccc([N+](=O)[O-])c3C2=O)c1` is 845 s; for `O=C1c2ccccc2C(=O)c2c1ccc(C(=O)N1CCN(c3ccccn3)CC1)c2NCCO` it is 616 s.

The record behind these values is the METLIN SMRT retention time set (Domingo-Almenara et al. 2019).
